Test results from patent publication EP3158990A1 (Glano Tech Ltd, priority 2015, dated 2017).

Legend:
[1] = system: smooth muscle of the corpora cavernosa of rats; assay: Relaxation/contraction of rat corpus cavernosum tissue samples (force displacement transducer); type: cell-based, Wistar-type rats; details: for relaxation of the tissue of the corpora cavernosa: tissue constricted with norepinephrine, scalar solutions 10^-5 M to 10^-3 M
Text: In particular, this model is used for planning experiments aimed at checking the vasodilatory action of NO on vascular smooth muscle cells, since the methodology presented by the authors allows samples of corpus cavernosum tissue to be obtained from rats, on which studies of response to various exogenous molecules can be conducted, to detect their relaxation/contraction effects on smooth muscle cells.
The work we selected and the experimental model on which we based our observations can easily be traced in the following work: G. Italiano, A. Calabrò and F. Pagano of the Urology Institute of Padua University, published in Pharmacology Therapeutics (Vol 30 no 4, 1994 pp. 325-334).
We used 20 adult Wistar-type rats weighing between 175 and 200 g; after having sacrificed the rats we obtained corpus cavernosum tissues as described by the methods and placed these in a Krebs solution (in mM: 118 NaCl, 4,7 KCI, 1,2 KH2PO4, 1,2 MgSO4, 1,5 CaCl2, 25 NaHCO3, 11 glucose).
A single sample was taken from each rat.
The excised tissues were then put in 10 mL Krebs solution and held in place by two metal arms to allow assessment of any changes in the forces observed and assessed by the Grass FT03 model (using a force displacement transducer apparatus to assess the muscle tension of tissues, calibrated in mN). The saline solution containing the tissues (Krebs solution) was kept at pH 7.4 ±0.1 and at 37°C, with oxygenation using a mixture of 95% oxygen and 5% carbon dioxide.

[2] = Analysis of the mixed solution (infrared nitrite peak, visible UV spectrum); type: physicochemical
[3] = system: rat model with type 1 diabetes induced by streptozotocin; assay: In-vivo test of sexual function in diabetic rat models; set-up: species or system male Wistar rats
Protocol: Next we tested the possible beneficial effects of SNO-pantetheine on sexual function in a rat model with type 1 diabetes induced by streptozotocin, which is typically accompanied by deficit of sexual activity.
In short, male Wistar rats were assigned to a cage (45 × 50 × 35 cm) covered in glass and lit with red light. Training took place every day after 5 pm for about 30 min, and after 10 minutes of acclimatisation a female rat in an oestrogenic phase was introduced into the cage. We then observed the sexual behaviour of diabetic rats vs. the relevant controls by measuring standard parameters (Burnett et al., 1995).

NC[C@H](O)c1ccc(O)c(O)c1 [norepinephrine, reference compound]
constriction ([1]; scalar solutions 10^-8 M to 10^-3 M, Krebs solution pH 7.4, 37°C): about 1.5 mN

CC(C)(CO)[C@@H](O)C(=O)NCCC(=O)NCCSN=O [SNO-pantetheine, S-nitrosothiol of pantetheine]
relaxation of the tissue of the corpora cavernosa [1]: the effect of the norepinephrine was cancelled out
nitrosothiol remains sufficiently stable ([2]; at room temperature, after mixing of phases A and B): more than 1 hour
EL (Ejaculation latency) ([3]; Day 0, topical application): 423.2 ± 12.5 s
IF (Introduction frequency) ([3]; Day 0, topical application): 11.2 ± 0.9 number
IL (Introduction latency) ([3]; Day 0, topical application): 52.3 ± 3.9 s
MF (Mating frequency) ([3]; Day 0, topical application): 12.0 ± 1.7 number
ML (Mating latency) ([3]; Day 0, topical application): 42.5 ± 2.9 s
PEI (Post-ejaculatory interval) ([3]; Day 0, topical application): 343.3 ± 10.9 s
EL (Ejaculation latency) ([3]; Day 30, topical application): 375.8 ± 10.8 s
IF (Introduction frequency) ([3]; Day 30, topical application): 14.5 ± 0.8 number
IL (Introduction latency) ([3]; Day 30, topical application): 44.7 ± 4.2 s
MF (Mating frequency) ([3]; Day 30, topical application): 11.2 ± 0.3 number
ML (Mating latency) ([3]; Day 30, topical application): 34.3 ± 2.5 s
PEI (Post-ejaculatory interval) ([3]; Day 30, topical application): 386.2 ± 14.3 s

O=C(O)CCCCC1CCSS1 (stereo not drawn) [alpha lipoic acid]
results of the reaction compared with pantetheine (nitrite consumption, S-nitroso compound formation) ([2]; alpha lipoic acid used as SH group donor instead of pantetheine): comparable results

S-nitrosothiol of alpha lipoic acid
relaxation of the tissue of the corpora cavernosa [1]: very similar to that of the S-nitrosothiol of pantetheine
